From publication PMC6882492, “Synthesis and biological evaluation of novel thienopyrimidine derivatives as diacylglycerol acyltransferase 1 (DGAT-1) inhibitors” (Journal of Enzyme Inhibition and Medicinal Chemistry, 2019) come the findings set out here.

SMILES strings stand for the structures. Bounds are passed on as bounds.

One data set concerns the target T1, hACAT2 (Homo sapiens, UniProt O75908).
T1 sequence (O75908 1-522): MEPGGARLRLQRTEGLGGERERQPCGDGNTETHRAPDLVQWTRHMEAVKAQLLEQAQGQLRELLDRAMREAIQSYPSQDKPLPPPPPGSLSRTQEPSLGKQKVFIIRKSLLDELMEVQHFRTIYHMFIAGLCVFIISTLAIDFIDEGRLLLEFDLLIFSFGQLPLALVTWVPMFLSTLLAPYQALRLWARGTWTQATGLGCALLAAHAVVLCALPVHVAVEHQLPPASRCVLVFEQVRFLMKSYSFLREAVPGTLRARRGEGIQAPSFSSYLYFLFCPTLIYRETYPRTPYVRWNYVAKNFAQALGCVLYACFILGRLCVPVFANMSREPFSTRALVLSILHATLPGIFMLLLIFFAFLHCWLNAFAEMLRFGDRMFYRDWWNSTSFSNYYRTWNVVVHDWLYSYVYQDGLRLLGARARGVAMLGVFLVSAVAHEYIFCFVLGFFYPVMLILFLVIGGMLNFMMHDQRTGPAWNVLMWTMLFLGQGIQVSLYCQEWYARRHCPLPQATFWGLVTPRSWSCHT
Kind of data set: Enzymatic assay hACAT2. Type of data set: biochemical. From the text: (§1) ACATs have sequence homology to DGAT-1 and play essential roles in cholesterol homeostasis. 17b was not explored in the enzymatic assays due to its poor pharmacokinetic profile.

Data set [1] is described as follows: In vitro microsomal stability, mouse. Type of data set: in vitro ADME. The conditions noted are these: mouse liver microsomes, 5 μM, 60 min. For orientation: Microsomes from liver hold many membrane-bound enzymes, among them those of drug oxidation.
For another data set, the target named is T2, hDGAT2 (Homo sapiens, UniProt Q96PD7).
T2 sequence (Q96PD7 1-388): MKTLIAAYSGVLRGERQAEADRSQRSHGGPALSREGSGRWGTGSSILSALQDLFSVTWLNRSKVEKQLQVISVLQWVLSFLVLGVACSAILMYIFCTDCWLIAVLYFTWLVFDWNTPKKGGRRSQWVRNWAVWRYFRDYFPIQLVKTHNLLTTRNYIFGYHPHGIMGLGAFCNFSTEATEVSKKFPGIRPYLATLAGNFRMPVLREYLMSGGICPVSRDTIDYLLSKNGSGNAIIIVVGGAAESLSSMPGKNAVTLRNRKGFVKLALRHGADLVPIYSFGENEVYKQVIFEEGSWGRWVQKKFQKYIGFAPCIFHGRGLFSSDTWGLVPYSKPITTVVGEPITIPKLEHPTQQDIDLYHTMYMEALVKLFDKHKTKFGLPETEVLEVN
Kind of data set: Enzymatic assay hDGAT2. Format: biochemical.
From the text: as §1

The target in another data set is T3, hACAT1 (Homo sapiens, UniProt P35610).
T3 sequence (P35610 1-550): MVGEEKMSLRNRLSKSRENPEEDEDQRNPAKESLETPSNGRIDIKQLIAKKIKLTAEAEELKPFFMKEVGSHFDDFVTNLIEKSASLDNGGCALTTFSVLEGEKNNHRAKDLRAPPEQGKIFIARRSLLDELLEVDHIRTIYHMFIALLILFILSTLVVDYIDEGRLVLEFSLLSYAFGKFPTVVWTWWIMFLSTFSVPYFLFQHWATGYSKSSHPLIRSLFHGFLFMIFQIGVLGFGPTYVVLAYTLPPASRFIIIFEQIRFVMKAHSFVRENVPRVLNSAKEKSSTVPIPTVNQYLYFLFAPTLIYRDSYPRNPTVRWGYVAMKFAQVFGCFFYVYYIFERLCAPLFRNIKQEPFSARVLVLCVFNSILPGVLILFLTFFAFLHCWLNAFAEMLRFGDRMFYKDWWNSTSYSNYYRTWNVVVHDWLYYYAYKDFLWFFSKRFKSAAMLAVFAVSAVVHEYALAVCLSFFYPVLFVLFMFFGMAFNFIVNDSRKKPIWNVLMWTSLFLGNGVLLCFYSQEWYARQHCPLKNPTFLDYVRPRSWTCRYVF
Briefly: Enzymatic assay hACAT1. Format: biochemical.
From the text: as §1

In a further data set the target is CYP3A4 (Homo sapiens, UniProt P08684). Briefly: CYP inhibition assay CYP3A4. Format: in vitro ADME. The conditions noted are these: fluorescence detection method; read-out: CYPs enzyme inhibition, IC50, CYP3A4.
Data set [2] is described as follows: Pharmacokinetic profile in ICR mice. The conditions noted are these: mouse, in vivo.

Sequence of CYP3A4 (P08684 whole entry): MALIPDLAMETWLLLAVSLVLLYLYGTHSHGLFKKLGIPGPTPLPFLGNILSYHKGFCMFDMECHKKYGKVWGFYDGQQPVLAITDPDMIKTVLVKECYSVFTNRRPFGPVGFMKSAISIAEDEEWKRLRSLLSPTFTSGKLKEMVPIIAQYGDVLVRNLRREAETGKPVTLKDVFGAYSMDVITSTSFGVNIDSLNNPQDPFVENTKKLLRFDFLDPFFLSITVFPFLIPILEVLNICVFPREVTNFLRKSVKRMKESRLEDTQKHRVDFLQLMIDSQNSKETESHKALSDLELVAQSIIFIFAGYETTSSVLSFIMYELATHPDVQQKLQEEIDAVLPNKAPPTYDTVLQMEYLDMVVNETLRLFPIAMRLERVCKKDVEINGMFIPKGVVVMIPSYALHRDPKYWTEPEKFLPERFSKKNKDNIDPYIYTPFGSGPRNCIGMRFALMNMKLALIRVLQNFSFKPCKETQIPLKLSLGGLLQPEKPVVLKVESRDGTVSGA

On to `O=C([O-])C[C@H]1CC[C@@H](c2csc3c(-c4ccc(NC(=O)Nc5cccc(Cl)c5)cc4)ncnc32)CC1.[Na+]` [Compound 17a, Sodium cis-2–(4–(4-(4-(3–(3-chlorophenyl)ureido)phenyl)thieno[3,2-d]pyrimidin-7-yl)cyclohexyl)acetate], for which the IC50 (usually the midpoint of a concentration-inhibition curve) was > 10 µM on hACAT2, > 10 µM against hDGAT2, > 10 µM on hACAT1 and 16.2 µM on CYP3A4. Besides, in data set [1], the “Microsomal stability, remaining percent” value stood at 82%. In data set [2] (oral 10 mg/kg vs iv 3 mg/kg), the bioavailability – broadly, dose-corrected exposure relative to a reference, in per cent – is 19%. For the same compound, in data set [2] (oral 10 mg/kg, n = 3), the Cmax – broadly, the highest concentration seen after dosing – turned out to be 479 ng/mL. The half-life – broadly, the time needed for the level to fall by half in the phase considered – in data set [2] (oral 10 mg/kg, n = 3) was 1.2 h. In addition, the AUC (commonly the area under the concentration-time curve, a measure of exposure) in data set [2] (oral 10 mg/kg, n = 3, read-out: AUC 0∼24) is 861 ng·h/mL.
